Some test systems named below: SK-MEL-5 melanoma; SN12C renal; RXF 393 renal; HT29 colon; PC-3 prostate; UACC-62 melanoma; NCI/ADR-RES ovarian; MDA-MB-231 breast; OVCAR-3 ovarian; M14 melanoma.
What all share (test): growth of human tumour cells (NCI), 48 h

Molecules are shown by their SMILES. Values joined by “and” are separate entries in the source; they are usually repeats but may differ in a detail not shown here. Equal values may be shown once.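 Exposure lasted 48 hours, with cells grown in 96-well plates and compounds tested at five concentrations. GI50 is the concentration that inhibits growth by half. TGI: concentration producing complete growth inhibition.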 A value given as a limit tells only on which side of the number the result lay.

Take `NCCCCC(NC(=O)C(N)CCCN=C(N)N)C(=O)NC(CCCCN)C(=O)NC(CCCN=C(N)N)C(=O)NC(CCCN=C(N)N)C(=O)NC(CCC(N)=O)C(=O)NC(CCCN=C(N)N)C(=O)NC(CCCN=C(N)N)C(=O)NC(CCCN=C(N)N)C(=O)NCC(=O)NCC(=O)O` (stereo not given): the GI50 in the assay with SK-MEL-5 melanoma, with SN12C renal, in the assay on RXF 393 renal, in the assay on HT29 colon, in the assay on PC-3 prostate and with UACC-62 melanoma was greater than 50 µM in each case. Moreover, the GI50 in the assay with NCI/ADR-RES ovarian, in the assay on MDA-MB-231 breast, in the assay on OVCAR-3 ovarian and with M14 melanoma was greater than 50 µM each time. Besides, the TGI in the assay with SK-MEL-5 melanoma, in the assay on SN12C renal, in the assay on RXF 393 renal, in the assay with HT29 colon, with PC-3 prostate and with UACC-62 melanoma was greater than 50 µM throughout. In addition, the TGI in the assay on NCI/ADR-RES ovarian, in the assay on MDA-MB-231 breast, in the assay on OVCAR-3 ovarian and in the assay on M14 melanoma was greater than 50 µM throughout.
As to `Cc1cc2c(F)c(Oc3ncnc(Nc4ccc(N5C[C@@H](C)N[C@@H](C)C5)cc4)c3C#N)cc(F)c2[nH]1`, the GI50 was 1.71 µM in the assay with SK-MEL-5 melanoma; 3.39 µM with SN12C renal; 0.641 µM in the assay with RXF 393 renal; 0.583 µM in the assay with HT29 colon; 3.05 µM in the assay on PC-3 prostate; 2.37 µM in the assay on UACC-62 melanoma. Moreover, the GI50 was 3.85 µM in the assay with NCI/ADR-RES ovarian, 1.98 µM with MDA-MB-231 breast, 1.75 µM in the assay on OVCAR-3 ovarian and 1.87 µM in the assay with M14 melanoma. The TGI with SK-MEL-5 melanoma came out at 3.13 µM; with SN12C renal, 14.3 µM; in the assay on RXF 393 renal, 2.44 µM; in the assay on HT29 colon, 2.49 µM; in the assay with PC-3 prostate, 11.4 µM; in the assay with UACC-62 melanoma it was 4.89 µM. The TGI worked out at 20.9 µM with NCI/ADR-RES ovarian, 4.39 µM with MDA-MB-231 breast, 3.46 µM with OVCAR-3 ovarian and 3.59 µM in the assay with M14 melanoma.
As to `C[C@@H]1C[C@H](N)C[C@H](c2ccncc2NC(=O)c2ccc(F)c(-c3c(F)cccc3F)n2)C1`, the GI50 was 13 µM and 1.58 µM with SK-MEL-5 melanoma; 12.3 µM and > 10 µM with SN12C renal; 11 µM and 7.73 µM with RXF 393 renal; 4.17 µM and 5.55 µM in the assay on HT29 colon; 3.83 µM and 2.68 µM in the assay on PC-3 prostate; 14.3 µM and > 10 µM in the assay on UACC-62 melanoma. Besides, the GI50 in the assay with NCI/ADR-RES ovarian is 14.5 µM and > 10 µM; in the assay on MDA-MB-231 breast, 12.8 µM and 4.01 µM; in the assay with OVCAR-3 ovarian it was 14.3 µM and > 10 µM; with M14 melanoma it was 12.9 µM and 2.35 µM. For the same compound, the TGI with SK-MEL-5 melanoma was 26.2 µM and 5.01 µM; with SN12C renal, 25.7 µM and > 10 µM; in the assay with RXF 393 renal, 26 µM and > 10 µM; with HT29 colon, 18.7 µM and > 10 µM; in the assay on PC-3 prostate it was 17.5 µM and > 10 µM; in the assay with UACC-62 melanoma, 28.2 µM and > 10 µM. The TGI in the assay with NCI/ADR-RES ovarian was 30.6 µM and > 10 µM; in the assay on MDA-MB-231 breast, 26.8 µM and > 10 µM; with OVCAR-3 ovarian, 28.2 µM and > 10 µM; in the assay on M14 melanoma it was 27.2 µM and > 10 µM.
In the case of `COc1cnc2c(c1)C(=O)c1c-2n(CCCN2CCCC2)c(=O)c2cc([N+](=O)[O-])ccc12`, the GI50 in the assay with SK-MEL-5 melanoma is 0.0671 µM; in the assay with SN12C renal, 0.036 µM; in the assay on RXF 393 renal, 0.0611 µM; with HT29 colon, 0.0202 µM; in the assay on PC-3 prostate it was 0.0662 µM; with UACC-62 melanoma, 0.0153 µM. Further, the GI50 is 0.026 µM in the assay with NCI/ADR-RES ovarian, 0.683 µM in the assay on MDA-MB-231 breast, 0.0586 µM with OVCAR-3 ovarian and less than 0.01 µM in the assay on M14 melanoma. In addition, the TGI with SK-MEL-5 melanoma is 0.322 µM; in the assay with SN12C renal, 15.3 µM; in the assay on RXF 393 renal, 0.533 µM; in the assay with HT29 colon, 1.37 µM; in the assay on PC-3 prostate it was 13.9 µM; in the assay on UACC-62 melanoma, 0.631 µM. Moreover, the TGI with NCI/ADR-RES ovarian turned out to be 1.31 µM; in the assay on MDA-MB-231 breast, 2.65 µM; in the assay on OVCAR-3 ovarian, 0.901 µM; with M14 melanoma, 1.01 µM.
Consider `CC1=C([Te]c2ccccc2)C(=O)c2ccccc2C1=O`, for which the GI50 was 0.799 µM in the assay with SK-MEL-5 melanoma; 0.311 µM in the assay with SN12C renal; 1.14 µM with RXF 393 renal; 0.344 µM with HT29 colon; 0.297 µM in the assay with PC-3 prostate; 1.43 µM in the assay with UACC-62 melanoma. The GI50 in the assay with NCI/ADR-RES ovarian is 0.426 µM; with MDA-MB-231 breast, 0.227 µM; with OVCAR-3 ovarian it was 1.04 µM; with M14 melanoma, 0.424 µM. Further, the TGI in the assay with SK-MEL-5 melanoma came to 2.03 µM; in the assay on SN12C renal, 1.47 µM; in the assay with RXF 393 renal it was 4.63 µM; in the assay on HT29 colon, 1.36 µM; with PC-3 prostate, 2.03 µM; with UACC-62 melanoma it was 3.8 µM. Further, the TGI with NCI/ADR-RES ovarian was found to be 2.63 µM; in the assay on MDA-MB-231 breast, 0.573 µM; in the assay with OVCAR-3 ovarian, 2.23 µM; in the assay on M14 melanoma, 1.76 µM.
